The source of these data is paper PMC10011747, “Targeting androgen receptor and the variants by an orally bioavailable Proteolysis Targeting Chimeras compound in castration resistant prostate cancer” (eBioMedicine, 2023).

The subject of one experiment is full-length AR. In words: AR degradation by western blot in prostate cancer cell lines. In kind it is cell-based, human. The following applies: for sustainability of AR and AR-V(ΔLBD) degradation after drug washout: 10 μM for 24 h then washout, LNCaP, CWR22Rv1, VCaP; for AR degradation: CWR22Rv1 cells (Table S1); for DC50: 24 h treatment; for AR Dmax CWR22Rv1 / AR Dmax VCaP: maximum degradation at 20 μM. The procedure:
(§1) To obtain total lysates, cells were lysed in RIPA buffer (50 mM Tris–HCl pH 8.0, 150 mM NaCl, 1% NP-40, 0.5% Na-deoxycholate, 0.5% SDS plus protease inhibitors). The lysates were resolved by SDS-polyacrylamide gel electrophoresis, and the protein expression was analyzed by western blotting using primary antibodies against AR (Millipore Cat# 06-680, RRID:AB_310214), AR-V7 (RevMAb Biosciences Cat# 31-1109-00, RRID:AB_2716436), GAPDH (Cell Signaling Technology Cat# 2118, RRID:AB_561053) and Actin (Sigma–Aldrich Cat# A5441, RRID:AB_476744). pLenti4/TO/Flag-AR or pLenti4/TO/Flag-TC-AR plasmid was co-transfected with HA-ubiquitin plasmid into 293T cells. 24 h after transfection, the cells were treated with 10 μM of the PROTAC compounds for 16 h, followed by 4-h treatment of 5 μM MG132. The cells were lysed with lysis buffer (50 mM Tris–HCl pH7.5, 150 mM NaCl, 0. 5% Triton X-100, 10% glycerol, 1 mM EDTA plus protease inhibitors) containing 1 ng/mL of N-ethylmaleimide, followed by immunoprecipitation with anti-Flag M2 (Sigma–Aldrich Cat# F3165, RRID:AB_259529) antibody. The ubiquitinated AR was then detected by western blotting using anti-HA (Sigma–Aldrich Cat# H3663, RRID:AB_262051) antibody.
(§2) Fig. 1 PROTAC-based AR degraders ITRI-90, ITRI-125 and ITRI-126 reduce AR and AR-V7 proteins in prostate cancer cell lines. (a) Chemical structure of the PROTAC AR degraders. (b) Representative western blots of AR protein levels in LNCaP, CWR22Rv1 and VCaP cells treated with the PROTAC degraders for 24 h. AR was detected by N-terminal antibody which also detects C-terminal truncated AR-V(ΔLBD) in CWR22Rv1 cells. AR-V7 specific antibody was used for AR-V7 detection. 4%–12% gradient gel was used to separate different species of AR-V(ΔLBD) near 75 kDa in CWR22Rv1 cell lysates. DC50 indicating the concentration required to achieve 50% degradation, was calculated based on normalized full-length AR and AR-V7 band intensity. Dmax is the maximum degradation achieved at 20 μM compound treatment. TEXT PRINTED IN THE PICTURE: (a) ITRI-90: AR DC50 (μM) LNCaP: 2.12 ± 0.93; AR DC50 (μM) CWR22Rv1: 5.73 ± 2.28; AR DC50 (μM) VCaP: 8.67 ± 4.87; AR-V7 DC50 (μM) CWR22Rv1: 4.72 ± 2.52; AR-V7 DC50 (μM) VCaP: 0.29 ± 0.15; AR Dmax (%) LNCaP: 88; AR Dmax (%) CWR22Rv1: 98; AR Dmax (%) VCaP: 90; AR-V7 Dmax (%) CWR22Rv1: 100; AR-V7 Dmax (%) VCaP: 63 | (a) ITRI-125: AR DC50 (μM) LNCaP: 6.10 ± 4.43; AR DC50 (μM) CWR22Rv1: 6.64 ± 1.87; AR DC50 (μM) VCaP: 9.05 ± 3.75; AR-V7 DC50 (μM) CWR22Rv1: 1.89 ± 1.06; AR-V7 DC50 (μM) VCaP: 0.52 ± 0.37; AR Dmax (%) LNCaP: 71; AR Dmax (%) CWR22Rv1: 96; AR Dmax (%) VCaP: 85; AR-V7 Dmax (%) CWR22Rv1: 99; AR-V7 Dmax (%) VCaP: 67 | (a) ITRI-126: AR DC50 (μM) LNCaP: 3.41 ± 3.13; AR DC50 (μM) CWR22Rv1: 0.11 ± 0.02; AR DC50 (μM) VCaP: 0.851 ± 0.43; AR-V7 DC50 (μM) CWR22Rv1: 0.011 ± 0.003; AR-V7 DC50 (μM) VCaP: 0.43 ± 0.19; AR Dmax (%) LNCaP: 99; AR Dmax (%) CWR22Rv1: 74; AR Dmax (%) VCaP: 94; AR-V7 Dmax (%) CWR22Rv1: 91; AR-V7 Dmax (%) VCaP: 82
(Immunoblotting shows a protein as a band on a membrane.)

A further experiment has as its target T1, AR-V7 (Homo sapiens, UniProt P10275).
T1 construct: endogenous in cells; host or cells: CWR22Rv1, VCaP
T1 sequence (P10275 1-644 isoform P10275-3): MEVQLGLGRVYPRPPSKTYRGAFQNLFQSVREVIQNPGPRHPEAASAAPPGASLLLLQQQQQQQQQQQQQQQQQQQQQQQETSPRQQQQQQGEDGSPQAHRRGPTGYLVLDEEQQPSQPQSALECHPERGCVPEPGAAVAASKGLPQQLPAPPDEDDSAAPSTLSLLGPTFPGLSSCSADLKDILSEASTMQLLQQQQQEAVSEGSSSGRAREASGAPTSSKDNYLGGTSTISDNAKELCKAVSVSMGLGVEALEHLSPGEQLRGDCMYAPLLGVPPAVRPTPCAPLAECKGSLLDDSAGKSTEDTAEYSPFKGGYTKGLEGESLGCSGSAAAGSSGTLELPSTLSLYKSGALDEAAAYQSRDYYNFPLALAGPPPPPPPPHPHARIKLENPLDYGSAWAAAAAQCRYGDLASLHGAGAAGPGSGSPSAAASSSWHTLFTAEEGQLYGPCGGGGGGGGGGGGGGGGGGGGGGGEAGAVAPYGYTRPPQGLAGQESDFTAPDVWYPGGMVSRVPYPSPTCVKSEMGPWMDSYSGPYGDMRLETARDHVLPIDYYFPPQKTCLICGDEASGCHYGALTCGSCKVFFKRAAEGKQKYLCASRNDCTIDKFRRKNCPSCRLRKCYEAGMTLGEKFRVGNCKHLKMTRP
The experiment is described as follows: AR-V7 degradation by western blot (AR-V7 specific antibody). In kind it is cell-based. The settings on record: for DC50: 24 h treatment; for Dmax at 20 µM: maximum degradation at 20 μM. The procedure:
as §1, §2

[1] abbreviates: CWR22Rv1 cells, read-out: AR DC50 CWR22Rv1.
The mark [2] stands for this setting: VCaP cells, read-out: AR DC50 VCaP.
[3] abbreviates: CWR22Rv1 cells, read-out: AR-V7 DC50 CWR22Rv1.
[4] abbreviates: CWR22Rv1 cells, read-out: AR-V7 Dmax CWR22Rv1.
The mark [5] stands for this setting: VCaP cells, read-out: AR-V7 DC50 VCaP.
Where [6] appears, read: VCaP cells, read-out: AR-V7 Dmax VCaP.

Where two headings read alike, the source gives them in different places.

As a reminder, the DC50 is the concentration at which degradation of the target reaches its halfway point. What is called Dmax is the greatest extent of degradation seen. Consider `Cc1ncsc1-c1ccc(CNC(=O)[C@@H]2C[C@H](O)CN2C(=O)[C@@H](NC(=O)COCCCCCCOc2ccc(C3CCN(C4=Nn5c(nnc5C(F)(F)F)CC4)CC3)cc2)C(C)(C)C)cc1` [ITRI-125, (2S,4S)-1-((S)-3,3-dimethyl-2-(2-(6-(4-(1-(3-(trifluoromethyl)-7,8-dihydro-[1,2,4]triazolo[4,3-b]pyridazin-6-yl)piperidin-4-yl)phenoxy)hexyloxy)acetamido)butanoyl)-4-hydroxy-N-(4-(4-methylthiazol-5-yl)benzyl)pyrrolidine-2-carboxamide], for which the “sustainability of AR and AR-V(ΔLBD) degradation after drug washout” value in the experiment on full-length AR is “lost the degrading effects on both full-length and truncated AR within 8 h post drug removal”. Moreover, in the experiment with full-length AR, the AR degradation worked out at 92.53%. For the same molecule, the DC50 in the experiment on full-length AR (setting [1]) is 6640 ± 1870 nM; in the experiment with full-length AR (setting [2]), 9050 ± 3750 nM; at AR-V7 (setting [3]), 1890 ± 1060 nM; at AR-V7 (setting [5]) it was 520 ± 370 nM. In the experiment with full-length AR (CWR22Rv1 cells), the “AR Dmax CWR22Rv1” value was 96%. Further, the “AR Dmax VCaP” value in the experiment with full-length AR (VCaP cells) is 85%. The Dmax at 20 µM on AR-V7 (setting [4]) amounted to 99%; at AR-V7 (setting [6]), 67%.

As to `Cc1ncsc1-c1ccc(CNC(=O)[C@@H]2C[C@H](O)CN2C(=O)[C@@H](NC(=O)COCCCCOc2ccc(C3CCN(C4=Nn5c(nnc5C(F)(F)F)CC4)CC3)cc2)C(C)(C)C)cc1` [ITRI-90, (2S,4S)-1-((S)-3,3-dimethyl-2-(2-(4-(4-(1-(3-(trifluoromethyl)-7,8-dihydro-[1,2,4]triazolo[4,3-b]pyridazin-6-yl)piperidin-4-yl)phenoxy)butoxy)acetamido)butanoyl)-4-hydroxy-N-(4-(4-methylthiazol-5-yl)benzyl)pyrrolidine-2-carboxamide], in the experiment with full-length AR, the “sustainability of AR and AR-V(ΔLBD) degradation after drug washout” value was “sustain low protein levels up to 24 h after drug washout”. In the experiment on full-length AR, this molecule displayed an AR degradation of 98.28%. Further, the DC50 in the experiment with full-length AR (setting [1]) worked out at 5730 ± 2280 nM; with full-length AR (setting [2]), 8670 ± 4870 nM; on AR-V7 (setting [3]), 4720 ± 2520 nM; on AR-V7 (setting [5]), 290 ± 150 nM. Further, the “AR Dmax CWR22Rv1” value with full-length AR (CWR22Rv1 cells) is reported as 98%. The “AR Dmax VCaP” value with full-length AR (VCaP cells) was 90%. Besides, the Dmax at 20 µM at AR-V7 (setting [4]) amounted to 100%; on AR-V7 (setting [6]), 63%.

Turning to `O=C1CCC(N2Cc3c(NC(=O)COCCCCOc4ccc(C5CCN(C6=Nn7c(nnc7C(F)(F)F)CC6)CC5)cc4)cccc3C2=O)C(=O)N1` (centres unmarked) [ITRI-126, N-(2-(2,6-dioxopiperidin-3-yl)-1-oxoisoindolin-4-yl)-2-(4-(4-(1-(3-(trifluoromethyl)-7,8-dihydro-[1,2,4]triazolo[4,3-b]pyridazin-6-yl)piperidin-4-yl)phenoxy)butoxy)acetamide], the “sustainability of AR and AR-V(ΔLBD) degradation after drug washout” value with full-length AR is reported as “sustain low protein levels up to 24 h after drug washout”. Further, the DC50 with full-length AR (setting [1]) stood at 110 ± 20 nM; in the experiment on full-length AR (setting [2]), 851 ± 430 nM; on AR-V7 (setting [3]), 11 ± 3 nM; on AR-V7 (setting [5]) it was 430 ± 190 nM. In the experiment on full-length AR (CWR22Rv1 cells), the “AR Dmax CWR22Rv1” value came to 74%. In the experiment with full-length AR (VCaP cells), the “AR Dmax VCaP” value was 94%. The greatest degradation seen (Dmax) at 20 µM at AR-V7 (setting [4]) is 91%; on AR-V7 (setting [6]), 82%.
